Results on twelve compounds are retold here after ChEMBL document CHEMBL1201862, “PubChem BioAssay data set” (2004).

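Each compound was tested at five concentrations against cells in 96-well plates for 48 hours. Here, GI50 denotes the concentration required for 50% inhibition of growth.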 The source made the active and inactive calls. Rule as the data show it: active = GI50 up to about 1.1 µM and inactive = higher.

Among the test systems are CCRF-CEM; HOP-62; HOP-92; KM12; M14; Malme-3M; NCI-H522; OVCAR-8; SF-295; SF-539; SK-MEL-5; SN12C; SR; SW-620; TK-10; U-251; NCI-H226; RPMI-8226.
What all share (experiment): inhibition of tumour cell growth, NCI panel, 48 h

Consider `COC(=O)/C(=N\NC(=O)c1ccccc1O)C(C#N)c1ccc(Cl)cc1` (centres undefined), for which the GI50 is 36.8 µM (inactive) in the assay on CCRF-CEM; 14.6 µM (inactive) in the assay on HOP-62; 89.7 µM (inactive) in the assay on HOP-92; 43.6 µM (inactive) in the assay with KM12; 40.6 µM (inactive) in the assay with M14; 26.1 µM (inactive) with Malme-3M. In addition, the GI50 is 25.2 µM (inactive) in the assay on NCI-H522; 28.1 µM (inactive) with OVCAR-8; 30.5 µM (inactive) in the assay with SF-295; 9.29 µM (inactive) in the assay on SF-539; 16.7 µM (inactive) in the assay on SK-MEL-5; 45.5 µM (inactive) with SN12C. The GI50 with SR is 37.3 µM (inactive); with SW-620, 44.5 µM (inactive); in the assay on TK-10, > 100 µM (inactive); with U-251 it was 44.7 µM (inactive).

Turning to `Cc1cc(=O)oc2cc(OCc3nc4ccccc4c(=O)[nH]3)ccc12`, the GI50 in the assay on CCRF-CEM, in the assay with HOP-62, in the assay with HOP-92, in the assay with KM12, in the assay with M14 and with Malme-3M was > 100 µM (inactive) throughout. Further, the GI50 in the assay on NCI-H226, in the assay with NCI-H522, in the assay on OVCAR-8, in the assay with RPMI-8226, in the assay with SF-295 and in the assay on SF-539 was > 100 µM (inactive) throughout. In addition, the GI50 in the assay on SK-MEL-5, in the assay on SN12C, in the assay on SW-620, in the assay on TK-10 and in the assay with U-251 was > 100 µM (inactive) each time.

Take `CCC12C[N+]3([O-])CCc4c([nH]c5ccccc45)C(C(=O)OC)(c4cc5c(cc4OC)N(C)C4C(O)(C(=O)OC)C(OC(C)=O)C6(CC)C=CCN7CCC54C76)CC(C3)C1O2` (centres undefined): the GI50 in the assay with CCRF-CEM was 0.401 µM (active); in the assay on HOP-62, 23.7 µM (inactive); with HOP-92 it was 0.594 µM (active); in the assay on KM12, 0.337 µM (active); with M14, 2.17 µM (inactive); in the assay with Malme-3M, 1.61 µM (inactive). In addition, the GI50 with NCI-H522 is 0.063 µM (active); with OVCAR-8, 2.67 µM (inactive); in the assay on RPMI-8226, 0.331 µM (active); in the assay with SF-295, 0.291 µM (active); in the assay with SF-539 it was 0.28 µM (active); in the assay on SK-MEL-5 it was 0.288 µM (active). In addition, the GI50 was 2.33 µM (inactive) in the assay on SN12C, 0.598 µM (active) in the assay with SW-620, 5.62 µM (inactive) in the assay on TK-10 and 1.04 µM (active) in the assay with U-251.

For `CCc1c(C#N)c(=O)[nH]c(=O)n1CCN1CCN(C(=O)NCCCCCCNC(=O)N2CCN(CCn3c(CC)c(C#N)c(=O)[nH]c3=O)CC2)CC1`, the GI50 in the assay on CCRF-CEM, with HOP-62, in the assay with M14, in the assay on OVCAR-8, in the assay on RPMI-8226 and in the assay with SF-295 was > 100 µM (inactive) throughout. Further, the GI50 in the assay with SF-539, in the assay on SK-MEL-5, in the assay with SN12C, in the assay with SW-620, in the assay with TK-10 and with U-251 was > 100 µM (inactive) in each case.

`COc1ccccc1-c1cc(=O)c2cc(C)c(C)c(C(=O)O)c2o1`: the GI50 in the assay with CCRF-CEM, with HOP-62, in the assay with HOP-92, with KM12, in the assay on M14 and in the assay on Malme-3M was > 100 µM (inactive) in each case. Also, the GI50 with NCI-H522, in the assay with OVCAR-8, in the assay with RPMI-8226, in the assay on SF-295, in the assay on SF-539 and in the assay with SK-MEL-5 was > 100 µM (inactive) throughout. The GI50 with SN12C, with SW-620, with TK-10 and in the assay on U-251 was > 100 µM (inactive) throughout.

Turning to `CN(C)C(=S)Nc1nnc(NC23CC4CC(CC(C4)C2)C3)s1.[O-][Cl+3]([O-])([O-])O`, the GI50 in the assay with CCRF-CEM is 15 µM (inactive); with HOP-62 it was 18.6 µM (inactive); in the assay with KM12, 18.7 µM (inactive); with M14, 16 µM (inactive); in the assay on Malme-3M, 17.3 µM (inactive); in the assay on NCI-H226 it was 19.4 µM (inactive). Further, the GI50 in the assay with NCI-H522 is 16.1 µM (inactive); with OVCAR-8 it was 26.7 µM (inactive); with RPMI-8226, 16 µM (inactive); with SF-295, 13.8 µM (inactive); with SF-539, 10 µM (inactive); in the assay on SK-MEL-5, 0.1 µM (active). In addition, the GI50 in the assay on SN12C was 15.3 µM (inactive); with SR, 15.9 µM (inactive); in the assay on SW-620, 16.7 µM (inactive); in the assay on TK-10, 40.5 µM (inactive); with U-251, 12.2 µM (inactive).

As for `Cc1cc(Cl)ccc1NC(=O)C(=O)C(C(=O)c1ccc2ccccc2c1)C1OC(=O)c2ccccc21` (centres undefined), the GI50 was 1.11 µM (active) in the assay with CCRF-CEM; 10.5 µM (inactive) in the assay with HOP-62; 14.3 µM (inactive) with HOP-92; 17 µM (inactive) in the assay with KM12; 16 µM (inactive) in the assay with M14; 10 µM (inactive) in the assay on Malme-3M. For the same compound, the GI50 with NCI-H226 is 2.3 µM (inactive); in the assay on NCI-H522, 7.06 µM (inactive); in the assay on OVCAR-8 it was 14.1 µM (inactive); in the assay with RPMI-8226, 3.1 µM (inactive); in the assay with SF-539, 4.48 µM (inactive); in the assay on SK-MEL-5 it was 12.7 µM (inactive). For the same compound, the GI50 in the assay with SN12C is 15.7 µM (inactive); with SW-620 it was 7.87 µM (inactive); in the assay on TK-10 it was > 10 µM (inactive); in the assay on U-251 it was 4.95 µM (inactive).

`O=C(CSc1nnc(-c2ccc(/N=C\c3ccc(Cl)cc3)cc2)o1)Nc1ccc([N+](=O)[O-])cc1`: the GI50 in the assay with CCRF-CEM is 18.5 µM (inactive); with HOP-62, 32.1 µM (inactive); in the assay on KM12, > 10 µM (inactive); in the assay on M14, 19.4 µM (inactive); in the assay with Malme-3M, 92.3 µM (inactive); in the assay on NCI-H226 it was 21.9 µM (inactive). Also, the GI50 in the assay on NCI-H522 is 20.9 µM (inactive); with OVCAR-8, 37.6 µM (inactive); in the assay with RPMI-8226, 2.45 µM (inactive); in the assay with SF-295 it was 30.2 µM (inactive); in the assay on SK-MEL-5, 18.4 µM (inactive); with SN12C it was 21.7 µM (inactive). The GI50 is 19 µM (inactive) in the assay with SR, 17.1 µM (inactive) in the assay with SW-620, 51.4 µM (inactive) with TK-10 and 19.3 µM (inactive) in the assay on U-251.

Regarding `COc1cccc(N2C(=O)/C(=C/c3ccc(N(CCC#N)CCC#N)cc3)N=C2c2cc([N+](=O)[O-])ccc2Cl)c1`, the GI50 with CCRF-CEM was 48.8 µM (inactive); in the assay with HOP-62 it was 50.9 µM (inactive); in the assay on KM12 it was 49.5 µM (inactive); in the assay on M14, 42.8 µM (inactive); with Malme-3M, > 100 µM (inactive); with NCI-H226 it was > 100 µM (inactive). The GI50 in the assay with NCI-H522 was 55.8 µM (inactive); in the assay on OVCAR-8, 78.7 µM (inactive); with RPMI-8226, 68.1 µM (inactive); in the assay on SF-295 it was 19.7 µM (inactive); in the assay on SF-539, > 100 µM (inactive); with SK-MEL-5 it was 84.9 µM (inactive). Also, the GI50 in the assay on SN12C was 87.7 µM (inactive); in the assay on SR it was 32.1 µM (inactive); in the assay with SW-620, 33.2 µM (inactive); in the assay with U-251 it was 59.2 µM (inactive).

As for `COC1=CC(=O)C(Br)=CC1=O`, the GI50 was 2.54 µM (inactive) in the assay with CCRF-CEM; > 100 µM (inactive) in the assay with HOP-62; 15.9 µM (inactive) with HOP-92; 19 µM (inactive) in the assay with M14; 21 µM (inactive) in the assay with Malme-3M; 8.69 µM (inactive) in the assay with NCI-H522. Also, the GI50 was 26.9 µM (inactive) in the assay on OVCAR-8; 21.6 µM (inactive) in the assay with RPMI-8226; 17.9 µM (inactive) in the assay on SK-MEL-5; 18.5 µM (inactive) with SN12C; 23.2 µM (inactive) in the assay with SW-620; 19.9 µM (inactive) in the assay on TK-10.

Turning to `O=C(c1nc2ccc(Cl)cc2nc1O)C(O)c1ccc2c(c1)OCO2` (centres undefined), the GI50 in the assay with CCRF-CEM is 4.17 µM (inactive); with HOP-62 it was > 100 µM (inactive); in the assay with HOP-92 it was > 100 µM (inactive); in the assay on KM12 it was 63.7 µM (inactive); in the assay with M14, > 100 µM (inactive); in the assay with Malme-3M it was > 100 µM (inactive). In addition, the GI50 in the assay with NCI-H226 is > 100 µM (inactive); in the assay on NCI-H522 it was 13.3 µM (inactive); with OVCAR-8 it was > 100 µM (inactive); in the assay on RPMI-8226 it was 7.4 µM (inactive); in the assay on SF-295, > 100 µM (inactive); in the assay with SW-620, > 100 µM (inactive). Besides, the GI50 in the assay with TK-10 and in the assay on U-251 was > 100 µM (inactive) each time.

As to `COC(=O)CCC12CCC(=O)C1[C@@H](C(=O)OC)C[C@H]2C(=O)OC` (some centres undefined), the GI50 with CCRF-CEM, in the assay on HOP-62, with KM12, in the assay on M14, in the assay on Malme-3M and with NCI-H226 was > 100 µM (inactive) throughout. The GI50 with NCI-H522, in the assay on OVCAR-8, with RPMI-8226, in the assay with SF-295, in the assay with SF-539 and in the assay with SK-MEL-5 was > 100 µM (inactive) each time. In addition, the GI50 in the assay on SN12C, with SW-620, in the assay with TK-10 and in the assay on U-251 was > 100 µM (inactive) throughout.
